Reference: US10183015B2, “Heterocyclic compounds and methods of use” (Medivation Technologies LLC, priority 2015, dated 2019)
Values joined by “and” are separate entries in the source; they are usually repeats but may differ in a detail not shown here. Equal values may be shown once.

How the values were obtained:
[1] = test system: ob/ob mice; experiment: ob/ob mice: liver triglycerides, fatty acids, total cholesterol; format: in vivo, mouse; settings: 8 weeks; for liver fatty acids / liver total cholesterol / liver triglycerides: ob/ob mice
Method: Groups of mice were either untreated (group 1) or treated for 8 weeks with vehicle (group 2), or with Compound #37 at 5 mg/kg (group 3), 10 mg/kg (group 4), or 20 mg/kg (group 5). Treatment was daily by oral gavage in vehicle (20% HPβCD). Values are presented as mean±standard error of the mean (sem). A t test was performed to compare the untreated group and the vehicle group. Then Compound #37-treated groups were compared to the vehicle-treated group with a 1-way ANOVA+Dunnett's post-test. […] For each test, a p<0.05 was considered significant. Of note, animal #39, group 1 was excluded from the statistical analysis, due to low values for all parameters measured. Some other values were considered as out-liners and excluded from the statistical analysis when the value was far below the mean minus 2 SD. Excluded values are marked with an asterisk in Tables 21-23.

[2] = test system: 60% high fat Paigen diet induced NASH mouse model; experiment: Short-term Paigen-diet NASH mouse model: liver weight and liver lipid content; format: in vivo
Method: To investigate whether Compound #37 prevents the development of pathology associated with NASH and steatosis in an acute exploratory disease model, a study was conducted using a diet-induced acute liver steatosis model in mice. […]
After acclimation, 8-week old male C57Bl/6J mice (Charles River) weighing about 25 g were randomized in 4 groups according their body weight and treated once daily around noon by oral gavage with vehicle, […] (2-hydroxypropyl)-β-cyclodextrin (HP-β-CD) (n=10); Group 2: Compound #37, 5 mg/kg (n=10) Group 3: Compound #37, 20 mg/kg (n=10) Group 4: Compound #37, 40 mg/kg (n=10). During the treatment period, body weight and food intake (measured over 24h) were measured 3 times per week and once a week, respectively. During the acclimation, all mice were fed a standard diet (Special Diets Services RM1 (E), product no. 801492) and tap water ad libitum. […]
After 21 days of treatment, mice were 4-hour fasted (9 am to 1 pm). One hour after the last dosing (noon), blood was collected by retro-orbital bleeding (maximal volume on EDTA) under isoflurane anesthesia to measure plasma triglycerides, total cholesterol, non-esterified fatty acid, ALT and AST. Mice were then sacrificed by cervical dislocation, and livers were harvested and weighed. Liver samples from the same lobe were dissected, frozen, and analyzed as described below.
At the end of the treatment period, livers were weighed, and their lipid content was analyzed. The liver weights were unchanged by the treatment.

[3] = test system: PERK; experiment: Short-term Paigen-diet NASH mouse model: hepatic PERK gene expression (RT-qPCR); format: in vivo; settings: 21 days
Method: To investigate whether Compound #37 prevents the development of pathology associated with NASH and steatosis in an acute exploratory disease model, a study was conducted using a diet-induced acute liver steatosis model in mice. As described below, in this study, C57BL/6J mice were initiated on the Paigen diet and simultaneously treated with Compound #37 (5, 20, and 40 mg/kg/day) or vehicle control (20% HPβCD 10 mL/kg/day) by oral gavage for 21 days.
After acclimation, 8-week old male C57Bl/6J mice (Charles River) weighing about 25 g were randomized in 4 groups according their body weight and treated once daily around noon by oral gavage with vehicle, or Compound #37 at various for 21 days as follows: Group 1: vehicle-20% (2-hydroxypropyl)-β-cyclodextrin (HP-β-CD) (n=10); Group 2: Compound #37, 5 mg/kg (n=10) Group 3: Compound #37, 20 mg/kg (n=10) Group 4: Compound #37, 40 mg/kg (n=10). During the treatment period, body weight and food intake (measured over 24h) were measured 3 times per week and once a week, respectively. During the acclimation, all mice were fed a standard diet (Special Diets Services RM1 (E), product no. 801492) and tap water ad libitum. After the acclimation period, mice were fed until the end of the experiment with a 60% high fat Paigen diet (60 kcal % fat, 1.25% cholesterol, and 0.5% cholate; D11061901, Research Diet) and tap water ad libitum.
Gene expression analysis. Hepatic expression levels of genes involved in lipid metabolism (FAS, SREBP1, ACC1, SCD1), cholesterol metabolism (HMG-CoAR, LDLR), SREBP proteolysis (SCAP, INSIG1), ER stress (PERK), oxidative stress (NRF2), inflammation (MCP-1), and fibrosis (collagen 1α1) were quantified by RTqPCR. Expression level was normalized to 18S gene expression and relative expression to vehicle group was calculated with the […] method.

[4] = 5 mg/kg daily oral gavage, group mean
[5] = 5 mg/kg daily oral gavage, individual animal values, 5 mg/kg
[6] = 10 mg/kg daily oral gavage, group mean
[7] = 10 mg/kg daily oral gavage, individual animal values, 10 mg/kg
[8] = 20 mg/kg daily oral gavage, group mean
[9] = 20 mg/kg daily oral gavage, individual animal values (* = excluded from statistical analysis), 20 mg/kg
[10] = 5 mg/kg p.o. daily, 21 days of diet and treatment, group mean
[11] = 5 mg/kg p.o. daily, 21 days of diet and treatment, individual animals
[12] = 20 mg/kg p.o. daily, 21 days of diet and treatment, group mean
[13] = 20 mg/kg p.o. daily, 21 days of diet and treatment, individual animals
[14] = 40 mg/kg p.o. (stopped after 4 administrations), 9 days of diet, group mean
[15] = 40 mg/kg p.o. (stopped after 4 administrations), 9 days of diet, individual animals

CC(C)Cc1cc(-c2nc(-c3ccc(NS(=O)(=O)C(F)(F)F)cc3Cl)cs2)ccn1 [Compound 37, N-(3-chloro-4-(2-(2-isobutylpyridin-4-yl)thiazol-4-yl)phenyl)-1,1,1-trifluoromethanesulfonamide]
hepatic cholesterol concentrations [1]: no effect | liver fatty acids [1, 4]: 35.9 nmol/mg liver | liver total cholesterol [1, 4]: 12.5 μg/mg liver | liver triglycerides [1, 4]: 80.3 μg/mg liver | liver fatty acids [1, 5]: 21.39 nmol/mg liver and 38.65 nmol/mg liver and 43.56 nmol/mg liver and 43.68 nmol/mg liver and 42.30 nmol/mg liver and 26.81 nmol/mg liver and 31.47 nmol/mg liver and 34.22 nmol/mg liver and 40.04 nmol/mg liver and 36.50 nmol/mg liver | liver total cholesterol [1, 5]: 9.57 μg/mg liver and 13.21 μg/mg liver and 16.08 μg/mg liver and 15.08 μg/mg liver and 14.41 μg/mg liver and 9.18 μg/mg liver and 10.40 μg/mg liver and 12.19 μg/mg liver and 13.20 μg/mg liver and 13.39 μg/mg liver | liver triglycerides [1, 5]: 32.54 μg/mg liver and 89.34 μg/mg liver and 118.92 μg/mg liver and 123.01 μg/mg liver and 111.66 μg/mg liver and 54.15 μg/mg liver and 66.99 μg/mg liver and 69.20 μg/mg liver and 107.70 μg/mg liver and 29.81 μg/mg liver | liver fatty acids [1, 6]: 47.00 nmol/mg liver | liver total cholesterol [1, 6]: 14.47 μg/mg liver | liver triglycerides [1, 6]: 115.44 μg/mg liver | liver fatty acids [1, 7]: 29.78 nmol/mg liver and 49.10 nmol/mg liver and 42.91 nmol/mg liver and 39.50 nmol/mg liver and 43.38 nmol/mg liver and 48.06 nmol/mg liver and 58.06 nmol/mg liver and 46.42 nmol/mg liver and 53.47 nmol/mg liver and 59.33 nmol/mg liver | liver total cholesterol [1, 7]: 11.02 μg/mg liver and 14.95 μg/mg liver and 15.25 μg/mg liver and 11.27 μg/mg liver and 14.07 μg/mg liver and 16.04 μg/mg liver and 17.20 μg/mg liver and 13.65 μg/mg liver and 14.90 μg/mg liver and 17.30 μg/mg liver | liver triglycerides [1, 7]: 71.81 μg/mg liver and 110.46 μg/mg liver and 96.59 μg/mg liver and 67.76 μg/mg liver and 106.16 μg/mg liver and 153.12 μg/mg liver and 128.22 μg/mg liver and 157.22 μg/mg liver and 124.56 μg/mg liver and 138.07 μg/mg liver | liver fatty acids [1, 8]: 42.4 nmol/mg liver | liver total cholesterol [1, 8]: 13.8 μg/mg liver | liver triglycerides [1, 8]: 106.3 μg/mg liver | liver fatty acids [1, 9]: 46.82 nmol/mg liver and 11.67* nmol/mg liver and 43.19 nmol/mg liver and 56.93 nmol/mg liver and 36.64 nmol/mg liver and 43.21 nmol/mg liver and 40.58 nmol/mg liver and 33.97 nmol/mg liver and 38.27 nmol/mg liver and 41.87 nmol/mg liver | liver total cholesterol [1, 9]: 16.75 μg/mg liver and 7.14* μg/mg liver and 13.56 μg/mg liver and 17.52 μg/mg liver and 11.98 μg/mg liver and 14.67 μg/mg liver and 14.39 μg/mg liver and 13.53 μg/mg liver and 12.83 μg/mg liver and 9.07 μg/mg liver | liver triglycerides [1, 9]: 115.27 μg/mg liver and 10.45* μg/mg liver and 99.74 μg/mg liver and 160.82 μg/mg liver and 71.59 μg/mg liver and 95.60 μg/mg liver and 114.62 μg/mg liver and 92.80 μg/mg liver and 91.36 μg/mg liver and 115.09 μg/mg liver | liver cholesterol (μg/mg tissue) [2, 10]: 34.4 μg/mg tissue | liver fatty acids (nmol/mg tissue) [2, 10]: 57.6 nmol/mg tissue | liver triglycerides (μg/mg tissue) [2, 10]: 6.2 μg/mg tissue | liver cholesterol (μg/mg tissue) [2, 11]: 42.24 μg/mg tissue and 37.91 μg/mg tissue and 31.39 μg/mg tissue and 23.12 μg/mg tissue and 31.47 μg/mg tissue and 25.31 μg/mg tissue and 29.76 μg/mg tissue and 37.34 μg/mg tissue and 49.15 μg/mg tissue and 36.57 μg/mg tissue | liver fatty acids (nmol/mg tissue) [2, 11]: 65.4 nmol/mg tissue and 66.6 nmol/mg tissue and 53.5 nmol/mg tissue and 47.5 nmol/mg tissue and 55.2 nmol/mg tissue (2×) and 35.5 nmol/mg tissue and 55.0 nmol/mg tissue and 77.4 nmol/mg tissue and 65.2 nmol/mg tissue | liver triglycerides (μg/mg tissue) [2, 11]: 6.91 μg/mg tissue and 7.18 μg/mg tissue and 4.64 μg/mg tissue and 9.62 μg/mg tissue and 6.13 μg/mg tissue (2×) and 5.69 μg/mg tissue and 5.49 μg/mg tissue and 3.62 μg/mg tissue and 6.16 μg/mg tissue | liver cholesterol (μg/mg tissue) [2, 12]: 39.1 μg/mg tissue | liver fatty acids (nmol/mg tissue) [2, 12]: 63.3 nmol/mg tissue | liver triglycerides (μg/mg tissue) [2, 12]: 5.4 μg/mg tissue | liver cholesterol (μg/mg tissue) [2, 13]: 38.32 μg/mg tissue and 42.07 μg/mg tissue and 39.38 μg/mg tissue and 32.61 μg/mg tissue and 40.02 μg/mg tissue and 42.44 μg/mg tissue | liver fatty acids (nmol/mg tissue) [2, 13]: 63.4 nmol/mg tissue and 66.5 nmol/mg tissue and 65.0 nmol/mg tissue and 50.0 nmol/mg tissue and 62.7 nmol/mg tissue and 72.5 nmol/mg tissue | liver triglycerides (μg/mg tissue) [2, 13]: 6.75 μg/mg tissue and 2.65 μg/mg tissue and 2.83 μg/mg tissue and 3.72 μg/mg tissue and 9.84 μg/mg tissue and 6.82 μg/mg tissue | liver cholesterol (μg/mg tissue) [2, 14]: 20.3 μg/mg tissue | liver fatty acids (nmol/mg tissue) [2, 14]: 43.0 nmol/mg tissue | liver triglycerides (μg/mg tissue) [2, 14]: 11.7 μg/mg tissue | liver cholesterol (μg/mg tissue) [2, 15]: 22.40 μg/mg tissue and 20.18 μg/mg tissue and 20.88 μg/mg tissue and 17.60 μg/mg tissue | liver fatty acids (nmol/mg tissue) [2, 15]: 43.6 nmol/mg tissue and 43.1 nmol/mg tissue and 43.5 nmol/mg tissue and 41.8 nmol/mg tissue | liver triglycerides (μg/mg tissue) [2, 15]: 9.11 μg/mg tissue and 11.15 μg/mg tissue and 14.68 μg/mg tissue and 11.77 μg/mg tissue | ER and oxidative stress gene expression PERK: 2DDct ([3]; 5 mg/kg, group mean, n 10): 0.91 | ER and oxidative stress gene expression PERK: 18S ([3]; 5 mg/kg, group mean, n 10): 12.3 | ER and oxidative stress gene expression PERK: DDct ([3]; 5 mg/kg, group mean, n 10): 0.32 | ER and oxidative stress gene expression PERK: Dct ([3]; 5 mg/kg, group mean, n 10): 15.4 | ER and oxidative stress gene expression PERK: PERK ([3]; 5 mg/kg, group mean, n 10): 27.6 | ER and oxidative stress gene expression PERK: 2DDct ([3]; 5 mg/kg, individual animals): 1.29 and 0.54 and 0.35 and 1.5 and 0.42 and 0.58 and 1.06 and 1.56 and 0.97 and 0.79 | ER and oxidative stress gene expression PERK: 18S ([3]; 5 mg/kg, individual animals): 13.46 and 13.11 and 11.61 and 13.35 (2×) and 12.03 and 11.6 and 11.79 and 11.14 and 11.12 | ER and oxidative stress gene expression PERK: DDct ([3]; 5 mg/kg, individual animals): −0.36 and 0.9 and 1.52 and −0.58 and 1.24 and 0.8 and −0.08 and −0.64 and 0.04 and 0.34 | ER and oxidative stress gene expression PERK: Dct ([3]; 5 mg/kg, individual animals): 14.68 and 15.94 and 16.56 and 14.46 and 16.28 and 15.84 and 14.96 and 14.4 and 15.08 and 15.38 | ER and oxidative stress gene expression PERK: PERK ([3]; 5 mg/kg, individual animals): 28.14 and 29.05 and 28.17 and 27.81 and 28.31 and 29.19 and 26.56 and 26.19 and 26.22 and 26.5 | ER and oxidative stress gene expression PERK: 2DDct ([3]; 20 mg/kg, group mean, n 6): 1.33 | ER and oxidative stress gene expression PERK: 18S ([3]; 20 mg/kg, group mean, n 6): 12.2 | ER and oxidative stress gene expression PERK: DDct ([3]; 20 mg/kg, group mean, n 6): −0.27 | ER and oxidative stress gene expression PERK: Dct ([3]; 20 mg/kg, group mean, n 6): 14.8 | ER and oxidative stress gene expression PERK: PERK ([3]; 20 mg/kg, group mean, n 6): 27 | ER and oxidative stress gene expression PERK: 2DDct ([3]; 20 mg/kg, individual animals): 1.04 and 1.05 and 1.27 and 2.68 and 0.61 and 1.34 | ER and oxidative stress gene expression PERK: 18S ([3]; 20 mg/kg, individual animals): 12.91 and 12.29 and 12.2 and 13.03 and 11.49 and 11.26 | ER and oxidative stress gene expression PERK: DDct ([3]; 20 mg/kg, individual animals): −0.05 and −0.07 and −0.34 and −1.42 and 0.72 and −0.42 | ER and oxidative stress gene expression PERK: Dct ([3]; 20 mg/kg, individual animals): 14.99 and 14.97 and 14.7 and 13.62 and 15.76 and 14.62 | ER and oxidative stress gene expression PERK: PERK ([3]; 20 mg/kg, individual animals): 27.9 and 27.26 and 26.9 and 26.65 and 27.25 and 25.88
